# Laboratory results taken from US11512079B2, “Heterocycle substituted pyridine derivative antifungal agents” (Amplyx Pharmaceuticals, Inc., priority 2017, dated 2022).
# What was measured:
# Type in all cases: cell-based
# [1] = test system: Aspergillus fumigatus MYA3626; assay: In vitro antifungal assay (Example IX), microdilution broth, MEC; conditions: minimum effective concentration (shortening of hyphae), 35° C., 40-48 h, RPMI1640
# In short: (§1)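 Read-out is the minimum effective concentration: lowest compound level causing shorter hyphae than in DMSO controls, echinocandin-style. Broth microdilution used conidia or spores harvested from agar plates, cleared of mycelium and clumps, at a final 1-2×10^4 spores/mL in RPMI1640.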
# [2] = test system: Candida albicans 90028; assay: In vitro antifungal assay (Example IX), microdilution broth, MIC; conditions: minimum inhibitory concentration (≥50% inhibition), 35° C., 40-48 h, RPMI1640
# In short: (§2)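 Yeast inocula (2.5×10^3 cells/mL, RPMI1640) were exposed to twofold compound series reaching 2-0.0019 μg/mL final, per CLSI yeast methodology. Incubation at 35° C. ran 40-48 h for Candida albicans 90028 and 72 h for Cryptococcus neoformans H99. MIC endpoints were confirmed by absorbance at 600 nm.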
# [3] = test system: Cryptococcus neoformans H99; assay: as above; conditions: minimum inhibitory concentration (≥50% inhibition), 35° C., 72 h, RPMI1640
# In short: as §2
# [4] = test system: Cryptococcus gattii; assay: as above; conditions: minimum inhibitory concentration (≥50% inhibition), 35° C., 72 h (Cryptococcus), RPMI1640
# Experimental: Preparation of Fungal Suspension. C. albicans 90028 and C. neoformans H99 strains were streaked from frozen stocks at −80° C. onto Sabouraud Dextrose Agar (SDA) plates. These were allowed to grow for 24 h (C. albicans) and 48 h (C. neoformans) at 35° C. before using them in the assay. 5-6 individual colonies were picked and diluted into sterile water to obtain a fungal suspension. The cell density of the suspension was determined and the culture diluted with RPMI1640 medium to obtain a fungal suspension of 2.5×10^3 cells/mL. The suspension was used in the MIC measurement as described below.
# Preparation of Compound Stocks and Intermediate Dilutions: The compounds were weighed and DMSO was added to prepare a 10 mg/mL stock. The solutions were mixed by vortexing and sonication at 37° C. for 5-10 mins. The resulting solutions were sterile filtered using a PTFE filter, and aliquoted (12 μL or as needed) and stored at −20° C. Intermediate compound dilutions were prepared in sterile polypropylene tubes in 100% DMSO. The compound stock solution was first diluted in DMSO to obtain a concentration of […] to 0.19 μg/mL.
# MIC/MEC Measurement: 99 μL 1 of the fungal suspension in RPMI1640 prepared as above was added to each well of a 96-well round bottom assay plate. 1 μL of the intermediate compound dilutions (200-0.19 μg/mL) were added to wells of the plate. This led to a 100-fold dilution of the intermediate dilutions resulting in a final compound concentration of 2-0.0019 μg/mL in the plate. 1 μL of DMSO was added to “No drug” control wells. The solutions were mixed by shaking on a plate shaker for 10 mins and plates incubated at 35° C. for 40-48 h (C. albicans, A. fumigatus, R. pusillus) and 72 h (Cryptococcus). […] This was validated by thorough mixing and reading at 600 nm on a microplate reader. The minimum concentration that led to shortening of hyphae as compared to hyphal growth in DMSO control wells was determined as the minimum effective concentration (MEC) for A. fumigatus and R. pusillus (as read for echinocandins). The use of the MIC and MEC endpoints against yeasts and molds, respectively has been described by Pfaller M A, Duncanson F, Messer S A, Moet G J, Jones R N, Castanheira M. Antimicrob Agents Chemother. 2011. 55(11):5155-8. In vitro activity of a novel broad-spectrum antifungal, E1210, tested against Aspergillus spp. determined by CLSI and EUCAST broth microdilution methods. Results are shown in Table 2, and the letters indicate the following ranges in μg/mL: […]
# [5] = test system: Rhizomucor pusillus 46342; assay: In vitro antifungal assay (Example IX), microdilution broth, MEC; conditions: minimum effective concentration (shortening of hyphae), 35° C., 40-48 h, RPMI1640
# In short: as §1
Compound,MIC [2],MIC [3],MIC [4],minimal effective concentration [1],minimal effective concentration [5]
"COc1ccc(OCc2ccc(Cc3cc(-c4cccnc4N)on3)cc2)cc1OC [compound 104, 3-(3-(4-((3,4-dimethoxyphenoxy)methyl)benzyl)isoxazol-5-yl)pyridin-2-amine]",> 1 µg/mL,> 1 µg/mL,,> 1 µg/mL,> 1 µg/mL
"Nc1ncccc1-c1cc(Cc2cnc(Oc3cc(F)cc(F)c3)nc2)no1 [compound 248, 3-(3-((2-(3,5-difluorophenoxy)pyrimidin-5-yl)methyl)isoxazol-5-yl)pyridin-2-amine]",> 1 µg/mL,> 1 µg/mL,> 1 µg/mL,0.1 to 1 µg/mL,
"Nc1ncccc1-c1cc(Cc2ccc(/C=C/c3cccc(F)c3)cc2)no1 [compound 233, (E)-3-(3-(4-(3-fluorostyryl)benzyl)isoxazol-5-yl)pyridin-2-amine]",> 1 µg/mL,> 1 µg/mL,> 1 µg/mL,0.1 to 1 µg/mL,
"Nc1ncccc1-c1cc(Cc2ccc(Nc3cc(F)cc(F)c3)nc2)no1 [compound 238, 5-((5-(2-aminopyridin-3-yl)isoxazol-3-yl)methyl)-N-(3,5-difluorophenyl)pyridin-2-amine]",> 1 µg/mL,0.1 to 1 µg/mL,0.1 to 1 µg/mL,> 1 µg/mL,
"N#CCc1ccc(Cc2cc(-c3cccnc3N)on2)cc1 [compound 2, 2-(4-((5-(2-aminopyridin-3-yl)isoxazol-3-yl)methyl)phenyl)acetonitrile]",> 1 µg/mL,> 1 µg/mL,,0.1 to 1 µg/mL,> 1 µg/mL
"Nc1ncccc1-c1cc(Cc2ccc(OCc3ccnc(Cl)c3F)nc2)no1 [compound 210, 3-(3-((6-((2-chloro-3-fluoropyridin-4-yl)methoxy)pyridin-3-yl)methyl)isoxazol-5-yl)pyridin-2-amine]",> 1 µg/mL,,,> 1 µg/mL,> 1 µg/mL
"Nc1ncccc1-c1cc(Cc2ccc(OCc3ccccc3C(F)(F)F)nc2)no1 [compound 128, 3-(3-((6-((2-(trifluoromethyl)benzyl)oxy)pyridin-3-yl)methyl)isoxazol-5-yl)pyridin-2-amine]",> 1 µg/mL,,,0.1 to 1 µg/mL,> 1 µg/mL
"Nc1ncccc1-c1cc(Cc2ccc(Cn3cc(CO)cn3)cc2)no1 [compound 102, (1-(4-((5-(2-aminopyridin-3-yl)isoxazol-3-yl)methyl)benzyl)-1H-pyrazol-4-yl)methanol]",> 1 µg/mL,,,> 1 µg/mL,> 1 µg/mL
"Nc1ncccc1-c1cc(Cc2ccc(OC3CCCc4cccnc43)nc2)no1 (centres unmarked) [compound 129, 3-(3-((6-((5,6,7,8-tetrahydroquinolin-8-yl)oxy)pyridin-3-yl)methyl)isoxazol-5-yl)pyridin-2-amine]",> 1 µg/mL,,,> 1 µg/mL,> 1 µg/mL
"Nc1ncccc1-c1cc(Cc2ccc(S(=O)(=O)N3CCOCC3)cc2)no1 [compound 228, 3-(3-(4-(morpholinosulfonyl)benzyl)isoxazol-5-yl)pyridin-2-amine]",> 1 µg/mL,,,> 1 µg/mL,> 1 µg/mL
"Nc1ncccc1-c1cc(Cc2ccc(O)cc2)no1 [C, 4-((5-(2-aminopyridin-3-yl)isoxazol-3-yl)methyl)phenol]",> 1 µg/mL,,,0.1 to 1 µg/mL,> 1 µg/mL

# Continued, in another order:
MIC [2],MIC [3],MIC [4],Compound,minimal effective concentration [1],minimal effective concentration [5]
0.01 to 0.1 µg/mL,0.1 to 1 µg/mL,> 1 µg/mL,"Nc1ncccc1-c1cc(Cc2cnc(Oc3ccccc3F)c(F)c2)no1 [compound 254, 3-(3-((5-fluoro-6-(2-fluorophenoxy)pyridin-3-yl)methyl)isoxazol-5-yl)pyridin-2-amine]",0.01 to 0.1 µg/mL,
> 1 µg/mL,0.1 to 1 µg/mL,> 1 µg/mL,"Nc1ncccc1-c1cc(Cc2ccc(Oc3ncccn3)c(F)c2)no1 [compound 259, 3-(3-(3-fluoro-4-(pyrimidin-2-yloxy)benzyl)isoxazol-5-yl)pyridin-2-amine]",0.01 to 0.1 µg/mL,
0.1 to 1 µg/mL,0.1 to 1 µg/mL,> 1 µg/mL,"Nc1ncccc1-c1cc(Cc2cnc(OCc3cccc(F)c3)nc2)no1 [compound 249, 3-(3-((2-((3-fluorobenzyl)oxy)pyrimidin-5-yl)methyl)isoxazol-5-yl)pyridin-2-amine]",0.01 to 0.1 µg/mL,
> 1 µg/mL,> 1 µg/mL,> 1 µg/mL,"Cc1c(OCC(F)(F)F)ccnc1COc1ccc(Cc2cc(-c3cccnc3N)on2)cn1 [compound 217, 3-(3-((6-((3-methyl-4-(2,2,2-trifluoroethoxy)pyridin-2-yl)methoxy)pyridin-3-yl)methyl)isoxazol-5-yl)pyridin-2-amine]",> 1 µg/mL,
0.01 to 0.1 µg/mL,0.1 to 1 µg/mL,> 1 µg/mL,"Nc1ncccc1-c1cc(Cc2cnc(Oc3ccccc3)c(F)c2)no1 [compound 255, 3-(3-((5-fluoro-6-phenoxypyridin-3-yl)methyl)isoxazol-5-yl)pyridin-2-amine]",0.01 to 0.1 µg/mL,
0.1 to 1 µg/mL,0.1 to 1 µg/mL,> 1 µg/mL,"Nc1ncccc1-c1cc(Cc2cnc(OCc3ccccc3F)c(F)c2)no1 [compound 260, 3-(3-((5-fluoro-6-((2-fluorobenzyl)oxy)pyridin-3-yl)methyl)isoxazol-5-yl)pyridin-2-amine]",0.1 to 1 µg/mL,
> 1 µg/mL,> 1 µg/mL,> 1 µg/mL,"Nc1ncccc1-c1cc(Cc2ccc(OCc3cc(Cl)nc(Cl)c3)nc2)no1 [compound 219, 3-(3-((6-((2,6-dichloropyridin-4-yl)methoxy)pyridin-3-yl)methyl)isoxazol-5-yl)pyridin-2-amine]",0.1 to 1 µg/mL,
0.1 to 1 µg/mL,0.1 to 1 µg/mL,0.1 to 1 µg/mL,"Nc1ncccc1-c1cc(Cc2cnc(Oc3cc(F)cc(F)c3)c(F)c2)no1 [compound 252, 3-(3-((6-(3,5-difluorophenoxy)-5-fluoropyridin-3-yl)methyl)isoxazol-5-yl)pyridin-2-amine]",0.1 to 1 µg/mL,
0.01 to 0.1 µg/mL,0.1 to 1 µg/mL,> 1 µg/mL,"Nc1ncccc1-c1cc(Cc2cnc(Oc3cccc(F)c3)c(F)c2)no1 [compound 256, 3-(3-((5-fluoro-6-(3-fluorophenoxy)pyridin-3-yl)methyl)isoxazol-5-yl)pyridin-2-amine]",0.1 to 1 µg/mL,
0.1 to 1 µg/mL,,,"Nc1ncccc1-c1cc(Cc2ccc(Nc3cccc(F)c3)nc2)no1 [compound 59, 5-((5-(2-aminopyridin-3-yl)isoxazol-3-yl)methyl)-N-(3-fluorophenyl)pyridin-2-amine]",0.1 to 1 µg/mL,> 1 µg/mL
0.01 to 0.1 µg/mL,,,"Nc1ncccc1-c1cc(Cc2ccc(OCc3ncccc3F)nc2)no1 [Example 162, 3-(3-((6-((3-fluoropyridin-2-yl)methoxy)pyridin-3-yl)methyl)isoxazol-5-yl)pyridin-2-amine]",0.1 to 1 µg/mL,> 1 µg/mL
0.1 to 1 µg/mL,,,"Nc1ccc(-c2cc(Cc3ccc(OCc4nccs4)cc3)no2)c(N)n1 [compound 133, 3-(3-(4-(thiazol-2-ylmethoxy)benzyl)isoxazol-5-yl)pyridine-2,6-diamine]",0.1 to 1 µg/mL,0.1 to 1 µg/mL
0.1 to 1 µg/mL,,,"Nc1ncccc1-c1cc(Cc2ccc(Cc3cncnc3)cc2)no1 [compound 21, 3-(3-(4-(pyrimidin-5-ylmethyl)benzyl)isoxazol-5-yl)pyridin-2-amine]",0.1 to 1 µg/mL,> 1 µg/mL
